Drawing on patent US20210070748A1, “INHIBITORS OF BRUTONS TYROSINE KINASE” (Pharmacyclics LLC, priority 2015, published 2021), this text covers IC50 for eight compounds.

Test [1] addresses T1, BTK-WT (Homo sapiens, UniProt Q06187).
T1 construct: purified from insect cells as a full-length construct containing an N-terminal 6X-His tag; His6 (N); made in house; host or cells: insect cells (baculovirus Sf21 in Method B)
Kind of test: Btk in vitro inhibitory activity (one of Method A TR-FRET, Method B electrophoretic mobility shift, Method C radiometric filter binding). Type of test: biochemical. The following applies: read-out: IC50 BTK-WT.

The target of test [2] is T2, TEC (Homo sapiens, UniProt P42680).
T2 sequence (P42680 1-631): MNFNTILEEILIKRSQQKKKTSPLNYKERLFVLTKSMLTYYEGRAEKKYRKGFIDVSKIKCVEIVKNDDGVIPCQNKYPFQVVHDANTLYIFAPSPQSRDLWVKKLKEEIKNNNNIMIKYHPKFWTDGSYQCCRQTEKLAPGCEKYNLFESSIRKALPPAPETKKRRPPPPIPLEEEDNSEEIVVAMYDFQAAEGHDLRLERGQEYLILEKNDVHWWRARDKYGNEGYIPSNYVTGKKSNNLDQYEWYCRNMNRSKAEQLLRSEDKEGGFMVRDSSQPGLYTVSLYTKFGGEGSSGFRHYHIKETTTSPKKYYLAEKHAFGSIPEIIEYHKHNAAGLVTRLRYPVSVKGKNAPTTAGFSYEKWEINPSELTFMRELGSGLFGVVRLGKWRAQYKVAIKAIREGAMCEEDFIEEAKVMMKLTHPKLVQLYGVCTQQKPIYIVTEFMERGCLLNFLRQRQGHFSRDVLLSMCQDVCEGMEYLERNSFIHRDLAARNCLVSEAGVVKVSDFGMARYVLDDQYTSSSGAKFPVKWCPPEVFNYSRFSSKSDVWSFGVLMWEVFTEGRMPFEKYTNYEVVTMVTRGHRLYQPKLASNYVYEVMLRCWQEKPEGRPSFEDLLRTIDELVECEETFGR
Kind of test: Inhibition of a panel of kinases, in vitro HotSpot kinase assay: TEC. Format: biochemical. As to the method:
The degree of inhibition of a panel of kinases is determined using the in vitro HotSpot kinase assay (purified enzymes, ^33P-ATP, an appropriate substrate and 1 μM ATP).

[3] abbreviates: Table 13, A compounds, 1 μM ATP.

Read-outs that look alike come from different tables or passages of the source.

T1 sequence (Q06187 whole entry): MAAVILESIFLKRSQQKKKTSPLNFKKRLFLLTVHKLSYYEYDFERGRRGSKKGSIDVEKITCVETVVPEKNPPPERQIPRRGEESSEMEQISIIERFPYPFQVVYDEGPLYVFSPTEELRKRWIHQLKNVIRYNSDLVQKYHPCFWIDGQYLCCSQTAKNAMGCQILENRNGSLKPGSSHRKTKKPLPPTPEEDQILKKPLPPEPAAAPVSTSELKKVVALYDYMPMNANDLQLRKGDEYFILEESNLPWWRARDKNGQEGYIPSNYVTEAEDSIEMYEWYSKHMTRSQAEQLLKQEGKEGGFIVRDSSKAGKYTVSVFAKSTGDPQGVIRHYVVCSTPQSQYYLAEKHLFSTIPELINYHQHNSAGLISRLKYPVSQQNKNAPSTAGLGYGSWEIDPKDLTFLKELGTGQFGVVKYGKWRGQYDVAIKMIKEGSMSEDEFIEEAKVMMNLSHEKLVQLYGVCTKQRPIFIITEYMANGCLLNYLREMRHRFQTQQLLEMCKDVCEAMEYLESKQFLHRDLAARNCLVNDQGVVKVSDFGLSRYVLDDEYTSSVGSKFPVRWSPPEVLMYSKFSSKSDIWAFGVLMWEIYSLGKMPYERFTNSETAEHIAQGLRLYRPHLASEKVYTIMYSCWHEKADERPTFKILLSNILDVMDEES

Take `C[C@@H]1[C@H](NC(=O)c2ccc(C3CC3)cc2)CCCN1c1cnc(C(N)=O)c(Nc2cc(CN3CCCCC3)ns2)n1` [Example A-181, 5-[(2R,3R)-3-(4-cyclopropylbenzamido)-2-methylpiperidin-1-yl]-3-{[3-(piperidin-1-ylmethyl)-1,2-thiazol-5-yl]amino}pyrazine-2-carboxamide]: the IC50 in test [1] (Table 13, A compounds) is not above 10 nM; in test [2] (setting [3]) it was 10 to 100 nM.
For the compound `C=CC(=O)N1CC[C@@H](N(C)c2nnc(C(N)=O)c(Nc3cc(C)ns3)n2)C1` [Example E-12, (R)-3-((1-acryloylpyrrolidin-3-yl)(methyl)amino)-5-(3-methylisothiazol-5-ylamino)-1,2,4-triazine-6-carboxamide], the IC50 was not above 10 nM in test [1] (E compounds, Table 17) and not above 10 nM in test [2] (E compounds, Table 17).
For the compound `C=CC(=O)N1CC[C@@H](N(C)c2nnc(C(N)=O)c(Nc3ccc(C(C)C)cc3)n2)C1` [Example E-26, (R)-3-((1-acryloylpyrrolidin-3-yl)(methyl)amino)-5-(4-isopropylphenylamino)-1,2,4-triazine-6-carboxamide], the IC50 is not above 10 nM in test [1] (E compounds, Table 17) and not above 10 nM in test [2] (E compounds, Table 17).
In the case of `C[C@@H]1[C@H](NC(=O)c2ccc(C3CC3)cc2)CCCN1c1cnc(C(N)=O)c(Nc2cnn(C3CCN(C)CC3)c2)n1` [Example A-173], the IC50 was not above 10 nM in test [1] (Table 13, A compounds) and 10 to 100 nM in test [2] (setting [3]).
Take `C[C@@H]1[C@H](NC(=O)c2ccc(C(=O)N(C)C)cc2)CCCN1c1cnc(C(N)=O)c(Nc2cnn(C)c2)n1` [Example E-138, N1-((2R,3R)-1-(5-carbamoyl-6-((1-methyl-1H-pyrazol-4-yl)amino)pyrazin-2-yl)-2-methylpiperidin-3-yl)-N4,N4-dimethylterephthalamide]: the IC50 is not above 10 nM in test [1] (E compounds, Table 17) and not above 10 nM in test [2] (E compounds, Table 17).
Take `C=CC(=O)N1CCC[C@@H](N(C)c2cnc(C(N)=O)c(Nc3ccc(C4(C)CCN(C5CCCC5)CC4)cc3)n2)C1` [Example E-103, (R)-5-((1-acryloylpiperidin-3-yl)(methyl)amino)-3-(4-(1-cyclopentyl-4-methylpiperidin-4-yl)phenylamino)pyrazine-2-carboxamide]: the IC50 in test [1] (E compounds, Table 17) is not above 10 nM; in test [2] (E compounds, Table 17), not above 10 nM.
In the case of `C[C@@H]1[C@H](NC(=O)c2ccc(C3CC3)cc2F)CCCN1c1cnc(C(N)=O)c(Nc2ccc(N3CCN(C)CC3)nc2)n1` [Example A-177, 5-[(2R,3R)-3-(4-cyclopropyl-2-fluorobenzamido)-2-methylpiperidin-1-yl]-3-{[6-(4-methylpiperazin-1-yl)pyridin-3-yl]amino}pyrazine-2-caoxamide], the half-inhibitory concentration (IC50) is not above 10 nM in test [1] (Table 13, A compounds) and 100 to 1000 nM in test [2] (setting [3]).
Taken in the same sequence, the figures for `CN1CCC(n2cc(Nc3nc(N4CCC[C@@H](n5ccc6cc(C7CC7)ccc6c5=O)C4)cnc3C(N)=O)cn2)CC1` [Example A-178, 5-[(3R)-3-(6-cyclopropyl-1-oxo-1,2-dihydroisoquinolin-2-yl)piperidin-1-yl]-3-{[1-(1-methylpiperidin-4-yl)-1H-pyrazol-4-yl]amino}pyrazine-2-carboxamide] were not above 10 nM and 10 to 100 nM.

One may read the IC50 as the midpoint of a concentration-inhibition curve.
